Experimental data from patent US6200962A, “Thionophosphate derivatives, process for their preparation and pharmaceutical compositions containing them” (priority 1994, dated 2001).

Experiments:
[1] = test system: BSA; assay: BSA's cystine oxidation by NaOCl (DTNB); settings: NaOCl 1 mM
Procedure: BSA (0.5 mg/ml) in Imi HEPES buffer pH=7.2(50 mM) was incubated with sodium hypochlorite (1 mM) for 15 min. The protein was dialyzed for 2 h against 2×500 vol of HEPES buffer to remove free sodium hypochlorite. 301 DTNB 0.015 M in water was then added to the protein solution and color was measured at 420 nm. AMTPs were added to the protein sample to protect it against sodium hypochlorite [Hazell and Stocker, ibid.].
(§1) BSA's tryptophan oxidation and BSA's cystine oxidation were the models for protein damage by NaOCl (FIG. 11 and FIG. 12 respectively). BSA fluorescence intensity decreased following oxidative stress of NaOCI (1 mM). […] Out of the three AMTP compounds the most lipophilic (A) was best in preventing the damage and provided 94% protection on the protein.

[2] = test system: Human skin fibroblasts; assay: Chromium release from fibroblasts, killing by streptolysin S and glucose oxidase; type: cell-based
Procedure: Human skin fibroblasts were kindly supplied by the Department for Human Genetics at Hadassa Hospital in Jerusalem. The cells were grown in D-MEM medium supplemented with glutamine, penicillin, and streptomycin and 10% fetal calf serum [Ginsburg, I. et al. (1992) Inflammation 16:519-538]. Radiolabeled cell monolayers were prepared by the addition of 10 μCi/ml of [^51 Cr]NaCrO4 (New England Nuclear) to […] of trypsinized cells grown in 75-ml tissue culture bottles. The cells were then dispensed into 24-well tissue culture plates (Nunc, Roskilde, Denmark) and grown to confluency in a CO2 incubator.
Hydrogen peroxide flux was generated by the addition of glucose oxidase (0.5 units/ml) to the tissue culture media. Streptolysin S (SLS) of Croup A Streptococci (17 hemolytic units/ml) was employed as a membrane damaging agent.
Culture monolayers were treated for 1 h with the agents listed above. The cultures were monitored periodically for changes in cell morphology. To assess cytotoxicity, the supernatant fluids were removed and centrifuged at 2000 rpm for 2 min. The solubilized radioactivity was then determined in a Contron gamma counter. The total radioactivity associated with untreated controls was solubilized by the addition of 1 ml of 1% Triton X-100. (AMTPs influence on SLS hemolytic activity and on glucose oxidase activity was also tested. No influences were observed).
Fibroblasts in culture were exposed to a synergistic killing mechanism (streptolysin S in combination with an oxidant glucose oxidase) in a D-MEM culture medium that contained 1 mg/ml of glucose (about 0.5-1 mM of H2 O2 was produced after 1 hour of incubation at 37° C.). This system caused about 60% chromium released within an hour. […] The positive controls were DMTU and catalase.

[3] = oil(mineral)/water and octanol/water partitioning; type: physicochemical; settings: for logP: octanol/water, read-out: P (octanol/water) (converted); for P (oil/water): oil(mineral)/water
Description: The basic chemical structure of the compounds of the invention includes the group --P--N=S, which resembles the thiourea --N--C=S core, in which the central carbon atom has been replaced by a phosphorus atom, to give --N--P=S, which is the characteristic functional group the novel compounds of the invention. This functional group is based on a primary amido thionophosphate (AMTP) chemical bond. The specific compounds shown in FIG. 1, which are only representative of the numerous possible compounds, differ in their oil(mineral) /water and octanol/water partitioning: […]

[4] = Lipid hydroperoxides in partially oxidized SUV liposomes; settings: 5 mM
Procedure: SUV liposomes were prepared from egg lecitin at 10% lipid concentration in a 50 ml HEPES buffer pH=6.9 according to already published procedures [Lichtenberg, D. and Barenholz. Y. (1988) Methods of Biochemical Analysis 33:337-462].
Lipid hydroperoxides were monitored by a modified micromolar sensitive spectroscopic method [Siddiqi, A. M. and Tappel, A. L. (1955) Chemist Analyst 44:52]. 50λ of lipids (liposomes or emulsion) were dissolved in 1 ml ethanol. 50λ of 50% potassium iodide solution were then added and the mixture was incubated for half an hour in the dark. The developed color was read in a spectrophotometer at 400 nm.
SUV Liposomes (12.5 mM) with certain degrees of oxidation were incubated with 5 mM AMTP molecules for period of 24 h. Peroxidation number (PN) was measured with potassium iodide in ethanol. AMTPs were able to decompose lipid hvdroperoxide and to reduce the peroxidation number (PN).

[5] = test system: BSA; assay: BSA oxidation by NaOCl, fluorescence (tryptophan); settings: NaOCl 1 mM
Procedure: BSA (0.5 mg/ml) in a 1 ml HEPES Buffer pH=7.2(50 mM) was incubated for 15 min with 1 mM sodium hypochlorite. Various concentrations of AMTP (compound B) were added to protect the protein. The sample was diluted in 3 ml of HEPES buffer and fluorescence was measured (lex =280 nm, lem =345 nm) in a JASCO FP-770 spectrotluorometer. Fluorescence decav was due to tryptophan and tyrosine oxidation. Alternatively, BAS (0.5 mg/ml) in HEPES buffer (1 ml) was incubated with 2,2'-azobis-(2-amidinopropane)-HCL (AAPH) (a water soluble peroxy radical initiator) (50 mM) at 37° C. for a period of 4 h. The sample was diluted with 2 ml of the buffer and fluorescence was measured [Hazell, L. and Stocker, R. (1993) Biochem. J. 290:165-172].
as §1

[6] = Solubility in D-MEM medium; type: physicochemical; settings: not soluble above this concentration
[7] = literature; cited from earlier work
[8] = Pro-oxidative effect: oxygen consumption with copper; settings: for oxygen consumption: 10 mM, Cu2+ 10 mM, pH 7.2, 37 °C; for Rate of oxygen consumption: Table 1, 10 mM with Cu2+ 10 mM
Procedure: Oxygen consumption from solutions that contained AMTPs or other antioxidants such as cystine or ascorbic acid at 10 mM each, and copper sulfate 10 mM, was monitored by Biological Oxygen Monitor, model YSI 53.
AMTP molecules (10 mM) were incubated at pH=7.2 37° C. with Cu^2+ (10 mM). Oxygen consumption from the solution was measured with a Clark electrode (biological oxygen monitor). No oxygen consumption was observed from the solution. […] The oxygen consumption rate is referred to free radical production rate.

[9] = Hydroxyl radical deoxyribose assay
Procedure: A modification of the assay described by Halliwell et al. [Halliwell, B. et al. (1987) Analyt. Biochem. 165:215-219] was developed. 2-Deoxyribose was purchased form Sigma Chemical Co. All other chemicals for the assay were purchased from BDH Chemicals Ltd. Degradation of deoxy ribose was achieved bv a mixture of Fe^2+, EDTA, ascorbic acid and H2 O2. […] The reaction mixture was incubated for 1 h at 37° C. Scavenging of hydroxyl radical was done by various concentrations of AMTP (compound C), and color was developed by reaction with thiobarbituric acid as described [Halliwell, B. et al., ibid.]
A^-1 =A0^-1 {1+K[S]×(KDR [DR])^-1 } Equation 1
where A is the absorbance in the presence of a scavenger S (AMTPs) at a concentration [S] and A0 is the absorbance in the absence of a scavenger KDR =3.1*10^9 (reaction constant between deoxyribose and OH. radical) [Ebert, M., et al. (1965) Pulse Radiolysis, Academic Press, London] and [DR]=18 mM. […] Considering the fast reaction between H2 O2 and Fe^2+ --NTA and the slow reaction rate between AMTP and hydrogen peroxide as monitored in the ^31 P experiments (FIG. 5), the light decay may be exclusively attributed to hydroxyl radical scavenging.

In the case of CCCCNP(=S)(OCC)OCC [Compound A, n-butylamido diethylthioiiophosphate], the “protection of BSA's cystines” value [1] is reported as “strong protection”, the inhibition at 2000 µM ([2]; Homo sapiens, Skin fibroblast, 1 h, 2 mM, read-out: protection against cell killing) is reported as 10% and the logP [3] is reported as 0.788. For the same compound, the “P (oil/water)” value [3] was 4.82, the “reduction of PN, comparative” value ([4]; after 24 h) was “more effective in reducing PN” and the “protection of BSA fluorescence” value [5] was 94%. The solubility [6] was no more than 2000 µM.
In the case of CNC(=S)NC [DMTU, N,N'-dimethyl thiourea], the toxicity [7] is given as “considered a toxic compound”.
For N[C@@H](CSSC[C@H](N)C(=O)O)C(=O)O [cystine], the oxygen consumption [8] was “significant oxygen consumption” and the “Rate of oxygen consumption” value [8] was 2.35e-06 M/min.
For O=C1O[C@H]([C@@H](O)CO)C(O)=C1O [Ascorbic acid], the oxygen consumption [8] was “significant oxygen consumption” and the “Rate of oxygen consumption” value [8] was 2.87e-05 M/min.
In the case of CCOP(=S)(NCCC(=O)O)OCC [Compound C, 2-carboxyamidodiethyl thionophosphate], the “reaction rate constant with hydroxyl radicals” value ([9]; calculated from equation 1, 18 mM deoxyribose) is reported as 1.5×10^9 M^-1 S^-1, the hydroxyl radical scavenging ([9]; deoxyribose degradation) is reported as “potent hydroxyl radical scavengers” and the “toxic effects on the cell” value ([2]; concentrations of up to 20 mM, compound alone) is reported as “did not show any toxic effects”. The “protection against cell killing” value ([2]; concentrations up to 10 mM, 60 min) was 50-60%, the logP [3] was -0.357 and the “P (oil/water)” value [3] was 0.39. For the same compound, the “reduction of PN, comparative” value ([4]; first few hours of incubation) was “more efficient in the first few hours”.
For NC(=S)Nc1cccc2ccccc12 [α-naphthyl-thiourea], the LD50 [7] is given as “about 10 mg/kg”.
